Drawing on US20240368159A1, “HPK1 DEGRADERS, COMPOSITIONS COMPRISING THE HPK1 DEGRADER, AND METHODS OF USING THE SAME” (BIOFRONT LTD, priority 2021, published 2024), this text covers IC50 and Dmax for 15 compounds.

For assay [1], the target named is T1, HPK1 protein (Homo sapiens, UniProt Q92918).
T1 construct: purchased Signal Chem M23-11G-10
T1 sequence (Q92918 1-346 limits assumed): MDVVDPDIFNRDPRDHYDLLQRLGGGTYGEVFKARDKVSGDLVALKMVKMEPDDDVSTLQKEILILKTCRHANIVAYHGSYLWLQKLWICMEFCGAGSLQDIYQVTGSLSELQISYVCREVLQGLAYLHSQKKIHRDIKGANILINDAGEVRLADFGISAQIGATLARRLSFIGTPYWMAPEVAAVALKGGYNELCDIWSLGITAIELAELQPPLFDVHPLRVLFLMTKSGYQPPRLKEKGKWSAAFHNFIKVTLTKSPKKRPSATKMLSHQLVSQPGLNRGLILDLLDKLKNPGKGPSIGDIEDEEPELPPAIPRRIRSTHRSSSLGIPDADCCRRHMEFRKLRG
The assay is described as follows: HPK1 enzyme inhibition assay (ADP-Glo). The format is biochemical. The following applies: MBP substrate, ATP, ADP-Glo readout. The method in brief:
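Recombinant human HPK1 preincubated with compound 60 min at 25 °C, then reaction with MBP (0.2 ug/ul, 2× stock) and ATP (20 μM, 2× stock) 60 min at 25 °C. ADP formed detected by ADP-Glo after ATP depletion and conversion to ATP; IC50 calculated from signal.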
In general terms: In ADP-Glo the light output rises with the ADP produced.

For assay [2], the target named is T2, HPK1 protein (Homo sapiens, UniProt Q92918).
T2 construct: Frozen human PBMC were purchased from Shanghai OribioTech; host or cells: human PBMC
The assay can be described thus: HPK1 protein degradation in human PBMC (western blot). The format is cell-based. To be noted: 18 h incubation. How it is done:
HPK1 protein degradation in human PBMC: Frozen human PBMC were purchased from Shanghai OribioTech and recovered with culture medium (RMPI1640) prior to use. The cells were then incubated with a variety of concentrations of compound. After incubation for 18 h, the cells were collected and lysed. The protein concentration was determined by BCA protein assay kit from Thermo (23227). The HPK1 protein level was determined by western blots, using anti-human HPK1 polyclonal antibody from CST (4472S). Proteins were loaded into each well of the pre-casting gels and subjected to electrophoretic separation by SDS-PAGE. The protein resolved by SDS-PAGE were transferred to PVDF, blocked by 5% skim milk, and probed with anti-human HPK1 antibody or β-actin antibody from CST (3700S), using standard western blotting procedure.
T2 sequence (Q92918 whole entry): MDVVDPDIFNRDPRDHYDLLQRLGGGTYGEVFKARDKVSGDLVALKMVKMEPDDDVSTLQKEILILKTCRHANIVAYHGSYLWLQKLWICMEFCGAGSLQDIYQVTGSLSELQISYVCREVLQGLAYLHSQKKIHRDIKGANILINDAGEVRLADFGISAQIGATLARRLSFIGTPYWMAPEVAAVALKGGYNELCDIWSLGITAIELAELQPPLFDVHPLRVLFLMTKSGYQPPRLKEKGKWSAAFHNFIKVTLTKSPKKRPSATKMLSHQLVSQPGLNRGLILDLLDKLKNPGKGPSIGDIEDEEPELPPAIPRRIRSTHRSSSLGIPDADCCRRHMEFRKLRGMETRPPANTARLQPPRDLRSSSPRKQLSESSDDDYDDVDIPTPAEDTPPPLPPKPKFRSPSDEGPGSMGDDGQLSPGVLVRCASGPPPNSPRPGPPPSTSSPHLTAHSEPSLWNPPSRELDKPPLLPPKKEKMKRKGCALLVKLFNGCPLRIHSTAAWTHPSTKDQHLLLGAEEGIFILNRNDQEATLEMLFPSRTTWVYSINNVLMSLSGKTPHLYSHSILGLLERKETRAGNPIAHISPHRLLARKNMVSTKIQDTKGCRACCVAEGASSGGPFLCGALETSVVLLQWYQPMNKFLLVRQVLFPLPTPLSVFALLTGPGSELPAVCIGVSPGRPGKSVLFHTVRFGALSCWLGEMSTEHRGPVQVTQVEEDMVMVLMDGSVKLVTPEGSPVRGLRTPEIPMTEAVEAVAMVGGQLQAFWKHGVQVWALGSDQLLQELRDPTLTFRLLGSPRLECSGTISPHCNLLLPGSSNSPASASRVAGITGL
(In general: A western blot detects proteins with antibodies after separation by electrophoresis.)

For a further assay, the system named is HPK1 p-SLP-76. The assay is described as follows: HPK1 p-SLP-76 inhibition assay in human PBMC (HTRF). The following applies: 6 h compound, anti-CD3 stimulation 20 min. Type of assay: cell-based. How it is done:
Human PBMC were purchased from OriCells (FPB004F-C). Before compound treatment, PBMC were starved in PRMI-1640 medium supplemented with 0.5% FBS overnight. The cell density was adjusted to 1*10^7 cells/mL in assay medium (RPMI-1640 no phenol red with 0.5% FBS) and 16 μL cell suspension was transferred per well to a 384-well plate (Corning #3765). 6× solution of test compound was prepared in assay medium and 4 μL was added per well to the 384-well plate. The plate was then incubated at 37° C., 5% CO2 for 6 h. PBMC in 384-well plate were stimulated with anti-CD3 (BD Biosciences #555329, final conc. is 10 ug/mL) for 20 min at 37° C., 5% CO2 by adding 4 μL 6× antibody solution per well. Phospho-SLP76 HTRF kit was purchased from Cisbio (63ADK076PEH). 8 μL 4× Lysis Buffer was added to 384-well plate after anti-CD3 stimulation. The plate was centrifuged at 1,000 rpm for 1 min, shaken at 250 rpm for 60 min and centrifuged again at 1,000 rpm for 5 min. Afterwards the cell lysates were transferred to the assay plate (Greiner #784075) with 16 μL per well. 4 μL detection antibody mix per well prepared in Detection Buffer was added to the assay plate, followed by centrifugation at 1,000 rpm for 1 min and incubation at 25° C. overnight.

For assay [3], the target named is T3, HPK1 protein (Mus musculus, UniProt P70218).
T3 construct: the CD3+ T cell population was isolated from spleenocytes of mice; endogenous in cells; host or cells: primary mouse splenic CD3+ (pan) T cells
T3 sequence (P70218 1-827): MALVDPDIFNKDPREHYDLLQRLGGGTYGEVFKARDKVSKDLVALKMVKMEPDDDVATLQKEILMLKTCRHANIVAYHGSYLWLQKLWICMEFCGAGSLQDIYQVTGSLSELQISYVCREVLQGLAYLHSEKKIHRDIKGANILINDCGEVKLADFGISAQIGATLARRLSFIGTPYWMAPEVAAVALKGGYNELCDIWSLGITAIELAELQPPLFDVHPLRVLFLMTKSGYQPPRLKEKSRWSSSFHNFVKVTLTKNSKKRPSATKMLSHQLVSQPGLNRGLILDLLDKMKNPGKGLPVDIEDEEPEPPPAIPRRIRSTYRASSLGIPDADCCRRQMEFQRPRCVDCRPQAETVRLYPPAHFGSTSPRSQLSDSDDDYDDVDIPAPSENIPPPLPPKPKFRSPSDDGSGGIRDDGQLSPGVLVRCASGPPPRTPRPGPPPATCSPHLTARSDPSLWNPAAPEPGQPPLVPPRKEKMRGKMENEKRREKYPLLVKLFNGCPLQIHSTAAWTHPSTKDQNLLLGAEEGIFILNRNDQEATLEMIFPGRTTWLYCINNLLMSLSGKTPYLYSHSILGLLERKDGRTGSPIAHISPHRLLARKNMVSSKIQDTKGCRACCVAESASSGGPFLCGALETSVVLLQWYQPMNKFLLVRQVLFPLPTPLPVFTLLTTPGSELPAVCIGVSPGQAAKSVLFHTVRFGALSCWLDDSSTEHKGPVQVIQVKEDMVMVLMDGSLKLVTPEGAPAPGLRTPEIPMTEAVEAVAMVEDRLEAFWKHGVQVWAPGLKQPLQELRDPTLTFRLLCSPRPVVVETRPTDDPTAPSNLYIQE
The assay can be described thus: HPK1 protein degradation in mouse pan T cell (western blot). Type of assay: cell-based. To be noted: 18 h incubation. As to the method:
HPK1 protein degradation in mouse pan T cell: the CD3+ T cell population was isolated from spleenocytes of mice by using Pan T cell isolation kit from Miltenyi Biotec (130-095-130) following manufacture's instruction. The isolated T cells were then incubated with a variety of concentrations of compound. After incubation for 18 h, the cells were collected and lysed. The protein concentration was determined by BCA protein assay kit from Thermo (23227). The HPK1 protein level was determined by western blots, using anti-human HPK1 polyclonal antibody from CST (4472). Proteins were loaded into each well of the pre-casting gels and subjected to electrophoretic separation by SDS-PAGE. The protein resolved by SDS-PAGE were transferred to PVDF, blocked by 5% skim milk and probed with anti-human HPK1 antibody or β-actin antibody from CST (3700S), using following standard western blotting procedure.

Structures are written as SMILES.

As usually defined, the IC50 is the concentration that gives 50% inhibition. Low values mean higher potency, high ones lower potency. A word on the Dmax: it is the greatest extent of degradation seen.

For `CCc1c[nH]c2ncc(-c3cccc(N4CCN(CCN5CCN(c6ccc7c(c6)C(=O)N(C6CCC(=O)NC6=O)C7=O)CC5)CC4=O)c3)c(Cl)c12` (stereo not drawn) [Example 28, 5-(4-(2-(4-(3-(4-chloro-3-ethyl-1H-pyrrolo[2,3-b]pyridin-5-yl)phenyl)-3-oxopiperazin-1-yl)ethyl)piperazin-1-yl)-2-(2,6-dioxopiperidin-3-yl)isoindoline-1,3-dione], the IC50 lay within 10 to 100 nM at HPK1 protein [1] and 300 to 3000 nM in the assay on HPK1 p-SLP-76. The compound further yielded a maximal degradation (Dmax) on HPK1 protein [2] of 80%.

In turn, `O=C1CCC(N2C(=O)c3cc(F)c(N4CCN(CCCN5CCN(c6cccc(-c7cnc8[nH]cc(CC(F)F)c8c7Cl)c6)C(=O)C5)CC4)cc3C2=O)C(=O)N1` (stereo not drawn) [Example 41] had an IC50 on HPK1 protein [1] of 10 to 100 nM. The Dmax is 90% at HPK1 protein [2] and 95% at HPK1 protein [3].

`CN(CC(=O)N1CCN(c2cccc(-c3cnc4[nH]cc(C5CC5)c4c3Cl)c2)C(=O)C1)C1CCN(c2cc3c(cc2F)C(=O)N(C2CCC(=O)NC2=O)C3=O)CC1` (stereo not drawn) [Example 42] returned a 50% inhibitory concentration (IC50) against HPK1 protein [1] of 10 to 100 nM. For the same compound, the figures for the Dmax at HPK1 protein [2] and on HPK1 protein [3] were 40% and 95%, respectively.

With `CCc1c[nH]c2ncc(-c3cc(N4CCN(C(=O)CN(C)C5CCN(c6cc7c(cc6F)C(=O)N(C6CCC(=O)NC6=O)C7=O)CC5)CC4=O)ccc3F)c(Cl)c12` (stereo not drawn) [Example 44], on HPK1 protein [1], the IC50 lay in the range of 10 to 100 nM. The Dmax on HPK1 protein [2] came out at 30%; at HPK1 protein [3], 50%.

As to `O=C1CCC(N2C(=O)c3cc(F)c(N4CCC(CCN5CCN(c6cccc(-c7cnc8[nH]cc(C9CC9)c8c7Cl)c6)C(=O)C5)CC4)cc3C2=O)C(=O)N1` (stereo not drawn) [Example 45], the IC50 against HPK1 protein [1] is 10 to 100 nM. Moreover, the Dmax is 78% at HPK1 protein [2] and 90% at HPK1 protein [3].

Compound `O=C1CCC(N2Cc3ccc(N4CCC(OCC(=O)N5CCN(c6cccc(-c7cnc8[nH]cc(C9CC9)c8c7Cl)c6)C(=O)C5)CC4)cc3C2=O)C(=O)N1` (stereo not drawn) [Example 46] yielded an IC50 on HPK1 protein [1] of no more than 10 nM. Further, the Dmax on HPK1 protein [2] came out at 51%; at HPK1 protein [3], 90%.

At HPK1 protein [1], `O=C1CCC(N2Cc3cc(N4CCC(OCC(=O)N5CCN(c6cccc(-c7cnc8[nH]cc(C9CC9)c8c7Cl)c6)C(=O)C5)CC4)ccc3C2=O)C(=O)N1` (stereo not drawn) [Example 47] gave an IC50 of no more than 10 nM. Further, the results for the Dmax at HPK1 protein [2] and at HPK1 protein [3] were 85% and 95%, respectively.

At HPK1 protein [1], `CC(OC1CCN(c2cc3c(cc2F)C(=O)N(C2CCC(=O)NC2=O)C3=O)CC1)C(=O)N1CCN(c2cccc(-c3cnc4[nH]cc(C5CC5)c4c3Cl)c2)C(=O)C1` (stereo not drawn) [Example 48] had an IC50 of 10 to 100 nM. The Dmax was found to be 57% at HPK1 protein [2] and 95% on HPK1 protein [3].

The compound `O=C1CCC(N2C(=O)c3cc(F)c(N4CCN(C5CC(CN6CCN(c7cccc(-c8cnc9[nH]cc(C%10CC%10)c9c8Cl)c7)C(=O)C6)C5)CC4)cc3C2=O)C(=O)N1` (stereo not drawn) [Example 51, 5-(4-(3-((4-(3-(4-chloro-3-cyclopropyl-1H-pyrrolo[2,3-b]pyridin-5-yl)phenyl)-3-oxopiperazin-1-yl)methyl)cyclobutyl)piperazin-1-yl)-2-(2,6-dioxopiperidin-3-yl)-6-fluoroisoindoline-1,3-dione] gave an IC50 at HPK1 protein [1] of 10 to 100 nM. Also, the maximal degradation (Dmax) was determined as 96% at HPK1 protein [2] and 95% on HPK1 protein [3].

As for `O=C1CCC(N2C(=O)c3cc(F)c(N4CCC5(CC4)CN(CCN4CCN(c6cccc(-c7cnc8[nH]cc(C9CC9)c8c7Cl)c6)C(=O)C4)C5)cc3C2=O)C(=O)N1` (stereo not drawn) [Example 52], the IC50 at HPK1 protein [1] lay within 10 to 100 nM. The maximal degradation (Dmax) stood at 31% at HPK1 protein [2] and 95% at HPK1 protein [3].

At HPK1 protein [1], `O=C1CCC(N2C(=O)c3cc(F)c(N4CCN(CCCN5CCN(c6cccc(-c7cnc8[nH]cc(C9CC9)c8c7Cl)n6)C(=O)C5)CC4)cc3C2=O)C(=O)N1` (stereo not drawn) [Example 53, 5-(4-(3-(4-(6-(4-chloro-3-cyclopropyl-1H-pyrrolo[2,3-b]pyridin-5-yl)pyridin-2-yl)-3-oxopiperazin-1-yl)propyl)piperazin-1-yl)-2-(2,6-dioxopiperidin-3-yl)-6-fluoroisoindoline-1,3-dione] returned an IC50 of 10 to 100 nM. The Dmax at HPK1 protein [2] was found to be 86%; at HPK1 protein [3], 95%.

Turning to `O=C1CCC(N2C(=O)c3cc(F)c(N4CCC(CCN5CCN(c6cccc(-c7cnc8[nH]cc(CC(F)F)c8c7Cl)c6)C(=O)C5)CC4)cc3C2=O)C(=O)N1` (stereo not drawn) [Example 55], at HPK1 protein [1], the 50% inhibitory concentration (IC50) is 100 to 1000 nM. Besides, the Dmax worked out at 55% on HPK1 protein [2] and 95% on HPK1 protein [3].

The compound `CCc1c[nH]c2ncc(-c3cccc(N4CCN(CCCN5CC=C(c6ccc7c(N8CCC(=O)NC8=O)nn(C)c7c6)CC5)CC4=O)c3)c(Cl)c12` [Example 74, 1-(6-(1-(3-(4-(3-(4-chloro-3-ethyl-1H-pyrrolo[2,3-b]pyridin-5-yl)phenyl)-3-oxopiperazin-1-yl)propyl)-1,2,3,6-tetrahydropyridin-4-yl)-1-methyl-1H-indazol-3-yl)dihydropyrimidine-2,4 (1H,3H)-dione] gave a half-maximal inhibitory concentration (IC50) against HPK1 protein [1] of no more than 10 nM. Also, the results for the Dmax at HPK1 protein [2] and at HPK1 protein [3] were 86% and 91%, respectively.

At HPK1 protein [1], `CCc1c[nH]c2ncc(-c3cccc(N4CCN(CCCN5CCN(c6ccc7c(N8CCC(=O)NC8=O)cccc7c6)CC5)CC4=O)c3)c(Cl)c12` [Example 76, 1-(6-(4-(3-(4-(3-(4-chloro-3-ethyl-1H-pyrrolo[2,3-b]pyridin-5-yl)phenyl)-3-oxopiperazin-1-yl)propyl)piperazin-1-yl)naphthalen-1-yl)dihydropyrimidine-2,4 (1H,3H)-dione] registered an IC50 of 10 to 100 nM. Further, the Dmax amounted to 74% on HPK1 protein [2] and 95% on HPK1 protein [3].

For `CCc1c[nH]c2ncc(-c3cccc(N4CCN(S(=O)(=O)CCN5CCN(c6ccc7c(c6)C(=O)N(C6CCC(=O)NC6=O)C7=O)CC5)CC4=O)c3)c(Cl)c12` (stereo not drawn) [Example 100], on HPK1 protein [1], the IC50 was 10 to 100 nM. The Dmax was determined as 93% at HPK1 protein [2] and 90% on HPK1 protein [3].
